Assays:
Assay type in all cases: cell-based
[1] = test system: Human primary T cells; test: T cell activation: secreted IL-2; settings: 48 hours, fold over background normalized to Compound 141A
Outline: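 IL-2 values are fold over anti-CD3/CD28 background, normalized to a reference compound and sorted into ranges. They come from supernatants of human pan-T cells captured on anti-CD3-coated plates and exposed 48 h, 37° C., to duplicate compound dilutions, measured with cytometric beads.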

[2] = test system: Human primary T cells; test: T cell activation: CD69 surface expression by flow cytometry; settings: fold over anti-CD3 stimulated background normalized to Compound 141A
Outline: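 Read-out is flow-cytometric CD69 surface staining, expressed as fold increase over anti-CD3-stimulated background and normalized to Compound 141A. Human pan T cells from PBMC or LeukoPaks were plated on OKT3-coated wells in serum-free XVivo-15. Compound dilutions were added for 48 h at 37° C, 5% CO2.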

[3] = test system: Human primary T cells; test: T cell activation: secreted IFN-y; settings: 48 hours, fold over background normalized to Compound 141A
Outline: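 Values are binned ranges (A–D) of fold increase over anti-CD3/CD28 background, normalized to a reference compound, for IFN-γ in supernatants measured by bead array. Pan-T cells from donor PBMC or LeukoPaks were stimulated on anti-CD3-coated wells (10 μg/mL coating) in serum-free medium with compound for 48 h at 37 °C.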

[4] = test system: human peripheral blood pan-T cells; test: T cell activation by small molecule inhibitors of Cbl-b (biomarker flow cytometry); settings: 10 μM, 48 hours
Procedure: Cryopreserved human peripheral blood pan-T cells (StemCell, 70024) were defrosted and resuspended in Immunocult-XF T cell Expansion Medium (StemCell, 10981). Cells were plated at 8×10^5 cells per well in 24 well plates, in presence or absence of pre-coated anti-CD3 (OKT3) antibody (ThermoFisher, 16-0037-85). Pre-coating of plates was done by diluting anti-CD3 antibody to 10 μg/mL in PBS and adding 1 ml to each well. Plates were incubated at 4° C. overnight or at 37° C. for 2 hours and washed once with PBS before use. Dilution of each small molecule cbl-b inhibitor was added. Untreated cell was used as a control. Plates were incubated for 48 hours at 37° C. with 5% CO2. T cells were fixed and permeabilized with Intracellular Fixation & Permeabilization Buffer Set (ThermoFisher, 88-8824), and continuously stained with one of PE-conjugated antibody listed in Table 10. Stained T cells were then analyzed with by flow cytometry (ThermoFisher Attune NxT). The percent of positive cells of each treated group was normalized with untreated cell and sorted into bins as follows: fold over background values from 10 to 14.9: range “A;” values from 5.0 to 9.9: range “B;” values from 2.0 to 4.9: range “C;” and values from 0.1 to 1.9: range “D.” Only for Notch1, geometric mean was used.

[5] = +CD3 (pre-coated anti-CD3 OKT3)

With `CC1CC(c2cc(NCCC#N)nc(N3Cc4c(cc(CN5CCC[C@H](C)C5)cc4C(F)(F)F)C3=O)c2)(c2nncn2C)C1` (stereo partly drawn) [Compound 192, 3-{[6-(6-{[(3S)-3-methylpiperidin-1-yl]methyl}-1-oxo-4-(trifluoromethyl)-3H-isoindol-2-yl)-4-[(1r,3s)-3-methyl-1-(4-methyl-1,2,4-triazol-3-yl)cyclobutyl]pyridin-2-yl]amino}propanenitrile] the “IL-2 1 nM” value ([1]; 1 nM compound) was “D (values between 0.01 and 0.09: range “D.”)”, the “IL-2 10 nM” value ([1]; 10 nM compound) was “B (values between 0.31 and 0.79: range “B”)” and the “IL-2 100 nM” value ([1]; 100 nM compound) was “X (fold over background values between 1.41 and 1.8: range “X”)”. The “CD69 1 nM” value ([2]; 1 nM compound) was “C (values between 0.30 and 0.60: range “C”)”, the “CD69 10 nM” value ([2]; 10 nM compound) was “A (values between 0.81 and 1.10: range “A”)” and the “CD69 100 nM” value ([2]; 100 nM compound) was “X (fold over background values between 1.11 and 1.6: range “X”)”. The “IFN-y 1 nM” value ([3]; 1 nM compound) was “B (values between 0.31 and 1.00: range “B;”)”, the “IFN-y 10 nM” value ([3]; 10 nM compound) was “B (values between 0.31 and 1.00: range “B;”)” and the “Notch 1, geometric mean normalized with untreated cell (fold over background)” value [4, 5] was “C (values from 2.0 to 4.9: range “C;”)”. For the same molecule, the “pCD3zeta, percent of positive cells normalized with untreated cell (fold over background)” value [4, 5] was “D (values from 0.1 to 1.9: range “D.”)”, the “pHS1, percent of positive cells normalized with untreated cell (fold over background)” value [4, 5] was “C (values from 2.0 to 4.9: range “C;”)” and the “pLYN, percent of positive cells normalized with untreated cell (fold over background)” value [4, 5] was “D (values from 0.1 to 1.9: range “D.”)”. The “pPLCg1, percent of positive cells normalized with untreated cell (fold over background)” value [4, 5] was “C (values from 2.0 to 4.9: range “C;”)”, the “pPLCg2, percent of positive cells normalized with untreated cell (fold over background)” value [4, 5] was “D (values from 0.1 to 1.9: range “D.”)” and the “pZAP70, percent of positive cells normalized with untreated cell (fold over background)” value [4, 5] was “C (values from 2.0 to 4.9: range “C;”)”. For the same molecule, the “Notch 1, geometric mean normalized with untreated cell (fold over background)” value ([4]; −CD3) was “D (values from 0.1 to 1.9: range “D.”)”, the “pCD3zeta, percent of positive cells normalized with untreated cell (fold over background)” value ([4]; −CD3) was “C (values from 2.0 to 4.9: range “C;”)” and the “pHS1, percent of positive cells normalized with untreated cell (fold over background)” value ([4]; −CD3) was “A (fold over background values from 10 to 14.9: range “A;”)”. The “pLYN, percent of positive cells normalized with untreated cell (fold over background)” value ([4]; −CD3) was “C (values from 2.0 to 4.9: range “C;”)”, the “pPLCg1, percent of positive cells normalized with untreated cell (fold over background)” value ([4]; −CD3) was “B (values from 5.0 to 9.9: range “B;”)” and the “pPLCg2, percent of positive cells normalized with untreated cell (fold over background)” value ([4]; −CD3) was “A (fold over background values from 10 to 14.9: range “A;”)”. For the same molecule, the “pZAP70, percent of positive cells normalized with untreated cell (fold over background)” value ([4]; −CD3) was “C (values from 2.0 to 4.9: range “C;”)”.
